This assay in a line: Applicant's experiments with FITC on liposomes (immunostimulant / detectable marker). To be noted: reagent attached to liposome exterior.

fluorescein isothiocyanate [FITC]: the “function as immunostimulant and detectable marker” value was “serves as both an immunostimulant and a detectable marker”.

(Values after patent publication US20230000997A1, “PROCESSES OF PREPARING POLYGLUTAMATED ANTIFOLATES AND USES OF THEIR COMPOSITIONS” (L.E.A.F. HOLDINGS GROUP LLC, priority 2019, published 2023).)
